The text below walks through data of US20240343828A1, “SPINK1 AS A TARGET FOR THERAPEUTIC INTERVENTION IN LUNG DISEASES” (Northwestern University, priority 2023, published 2024).

In data set [1] the test system is mouse lung. The data set is described as follows: scRNA-seq analysis of lung tissues from the animal experiment. It counts as in vivo.
Excerpt: Using the lung tissues collected from our animal experiment, Applicant performed the scRNA-seq analysis and identified 36 different cell types within epithelial, endothelial, stromal and immune compartments (FIG. 17A).
Since AT2s are the fibrosis driver^21,23, Applicant performed the differential gene expression between bleomycin vs combo treatment to identify the potential genes that are invoked by Spink1.
The test system of data set [2] is mouse lung. The data set is described as follows: Sircol assay of collagen content. The class given is in vivo. From the text: To further understand the impact of Spink1 on lung fibrosis, Applicant performed the molecular experiment to mutate Spink amino acid sequence. Applicant generated two Spink1 variants (protein 2: R19Y and protein 3: R19A) to denote the ones with activity preserved (protein 2: R19Y) and activity ablation (protein 3: R19A). Applicant used these two variants, together with Spink1 wild type protein and PBS, to conduct the animal experiments using healthy mice (FIG. 15).

Data set [3] relates to mouse lung. The data set is described as follows: Trichome staining of mouse lung. The class given is in vivo. The settings on record: Spink1-treated mouse lungs. The protocol:
(§1) The H&E histology experiment and trichome staining assay were conducted in histology core at northwestern university.

Data set [4] deals with mouse lung. The data set is described as follows: H&E staining of mouse lung. The class given is in vivo. The note with it: Spink1-treated mouse lungs. The protocol: as §1
Data set [5] concerns fibroblasts. The data set is described as follows: In vitro fibroblast gene expression with Spink1 incubation. The note with it: different Spink1 concentrations, 24 hours. The class given is cell-based. The protocol: Applicant performed an in vitro experiment to further validate the functional role of SPINK1 in mediating fibroblasts and aSMA+ stromal cells. Applicant incubated fibroblasts with different concentration of recombinant mouse Spink1 protein for 24 hours and tested the gene expression level. […] However, the expression level of aSMA was elevated in response to Spink1 treatment (FIG. 23A). This implied that Spink1 could drive the differentiation of fibroblast toward aSMA+ stromal cells.

The test system of data set [6] is fibroblasts. The data set is described as follows: Fibroblast proliferation with Spink1 incubation. It counts as cell-based. The protocol:
FIGS. 23A-23C: In vitro experiment to validate the functional role of Spink1 in mediating stromal cell activity. Gene expression changes in fibroblasts with the incubation of different concentration of Spink1 protein (FIG. 23A). The proliferation rate of fibroblasts with the incubation of Spink1 (FIG. 23B). The proliferation rate was calculated as the difference between end point and start point, followed by the division of start point value. Zero proliferation rate indicates no proliferation is detected. The changes of aSMA gene in fibroblasts with the incubation of Spink1 and EGFR inhibitor of AG1468 (FIG. 23C).
Applicant also tested the proliferation activity of fibroblast with the incubation of Spink1. […] Furthermore, Applicant hypothesized that the differentiation of fibroblast toward aSMA+ cells could be EGFR pathway dependent.

Data set [7] deals with mouse. The settings on record: mice with bleomycin pre-treatment.
Description: Two sets of experiment were set up: one set with bleomycin pretreatment and the other without bleomycin pretreatment(FIG. 10). Applicant labeled as the groups as: PBS, recombinant Spink1 protein, bleomycin and the combo of bleomycin and recombinant Spink1 protein (the last two groups are the one with bleomycin pretreatment).
For experiment one, Applicant have four groups as illustrated in FIG. 10. Intrathecal administration was used in this study and 20 ug recombinant protein was injected each time. For the group without bleomycin pretreatment, the animals were injected every third day until they were killed at day 22. For the group with bleomycin pretreatment, the animals were pretreated with bleomycin and then the first dose of recombinant Spink1 protein was injected at day 14 after the bleomycin pretreatment. Another 4 doses were given at day 21, day 24, day 27 and day 30. The animals were killed at day 34 and the tissues were harvested and frozen/fixed for further analysis.
[8] abbreviates: pathway enrichment, PBS vs Spink1 treatment.

With bleomycin [reference compound], the “Cthrc1+ fibroblasts in stromal compartment” value in data set [1] (mouse lung scRNA-seq) was “induces the overproduction of Cthrc1^+ fibroblasts”.
For the substance “Spink1: recombinant mouse Spink1 (Spink3) protein, homologue of human SPINK1, Serine protease inhibitor Kazal-type 1 (AKVTGKEASCHDAVAGCPRIYDPVCGTDGITYANECVLCFENRKRIEPVLIRKGGPC; UniProt P09036 24-80, looked up)”, in data set [2] (healthy animals, no bleomycin pretreatment), the “collagen accumulation (Sircol)” value was “can induce the collagen accumulation”. Also, in data set [2] (mice with Spink1 treatment, 20 ug per injection), the “collagen content (Sircol)” value is given as “accumulative collagen content”. Further, the “collagen deposition (trichome staining)” value in data set [3] is listed as “high level of collagen accumulated”. The “alveolar damage and immune cell infiltration (H&E)” value in data set [4] was “notable alveolar damage and immune cell infiltration”. In addition, in data set [1] (AT2, combo vs bleomycin), the “gene set "Negative regulation of fibroblast proliferation" (GSEA)” value is “induces the down-regulation” and the “phagosome maturation gene set (GSEA)” value is on record as “significantly down-regulated”. Also, in data set [1] (mouse treated with Spink1), the “expression level of Cdc42” value is “significantly decreased expression level”. For the same substance, in data set [1] (setting [8]), the “apoptosis of aSMA+ cells” value is “arrested the apoptosis of aSMA+ cells” and the “wound healing pathway in fibroblasts” value was “downregulated”. The “expression level of Ftl1” value in data set [1] (regardless of the bleomycin pretreatment) is given as “seems to vanish”. Further, in data set [5], the “expression level of Col1a1” value is given as “not significantly changed”, the “expression level of Fibronectin” value is given as “not significantly changed” and the “expression level of aSMA” value is “elevated”. The “proliferation rate of fibroblast” value in data set [6] (24 hr Spink1 incubation) was “high proliferation rate”. For the same substance, the “proliferation rate of fibroblast” value in data set [6] (48 hr incubation) was “increased rate disappears”. In addition, the body weight change result in data set [7] is recorded as “induce weight loss”.
On to “protein 3: R19A: Spink1 variant R19A with activity ablation (AKVTGKEASCHDAVAGCPAIYDPVCGTDGITYANECVLCFENRKRIEPVLIRKGGPC; UniProt P09036 24-80, looked up, variant R19A)”, for which, in data set [2] (healthy mice, 6 doses, compared with wild type Spink1 and PBS), the “collagen accumulation (Sircol), Spink1 variants” value is “fails to induce collagen accumulation”.
